Assays:
LUDLU-1 [1] = test: SRB anti-proliferative assay, LUDLU-1, with CalcuSyn combination index (Example 1); format: cell-based; settings: Homo sapiens, LUDLU-1, 72 h, read-out: Zah. (inhibition of proliferation)
Protocol: (§1) Cells were thawed from ampoules stored in liquid nitrogen and cultured in petri dishes in appropriate culture medium according to Table 2, in a humidified 5% CO2 atmosphere at 37° C. Cells were passaged twice weekly using EDTA-Trypsin solution, pH 8. Counted cells with a viability of at least 90% as assessed with Trypan-Blue solution were used for anti-proliferative assays.
(§2) Twenty-four hours before the addition of the test compounds/combinations, cells were seeded into 384-well plates at 50 μL/well and a density of 10^3 cells/well, in the appropriate culture medium.
(§3) Solutions of the compounds were diluted in the test medium-RPMI-1640 and Opti-MEM in a 1:1 ratio, and the medium was supplemented with 2 mM glutamine and 5% fetal bovine serum FBS. After 72 h, colourimetric assessment of cell growth was performed by SRB. […] Unbound dye was removed by washing the plates (4×) in 1% (v/v) acetic acid, and protein-bound dye was extracted with 10 mM unbuffered Tris base and the optical density (A=540 nm) was determined in a BioTek Synergy H4 Hybrid computer microplate reader (BioTek Instruments USA). The entire washing/staining procedure was performed using a BioTek EL406 washing station (BioTek Instruments USA). The raw absorbance results were analysed in Microsoft Excel software using the formula:
(§4) [formula] • Where: • % Zahlnh-inhibition of proliferation • Am—absorbance of wells without cells (medium) • Ak—absorbance of control wells (cells treated with pure culture medium) • Ap—absorbance of wells treated with compounds
(§5) Each compound at the indicated concentrations was tested in triplicate in one experiment. Each experiment was repeated three times. Data analysis was supplemented with synergy assessment using CalcuSyn software. […] A CI value below 0.8 indicates synergism, 0.8-1.2 an additive effect, above 1.2 an antagonism.

SW1990 = test: SRB anti-proliferative assay, SW1990, with CalcuSyn combination index (Example 1); format: cell-based; settings: Homo sapiens, SW1990, 72 h, read-out: Zah. (inhibition of proliferation)
Protocol: as §1, §2, §3, §4, §5

BxPC3 = test: SRB anti-proliferative assay, BxPC3, with CalcuSyn combination index (Example 1); format: cell-based; settings: Homo sapiens, BXPC-3, 72 h, read-out: Zah. (inhibition of proliferation)
Protocol: as §1, §2, §3, §4, §5

NCI-H1299 = test: SRB anti-proliferative assay, NCI-H1299, with CalcuSyn combination index (Example 1); format: cell-based; settings: Homo sapiens, NCI-H1299, 72 h, read-out: Zah. (inhibition of proliferation)
Protocol: as §1, §2, §3, §4, §5

A172 = test: SRB anti-proliferative assay, A172, molecular combination and nanoparticles, with combination index (Example III); format: cell-based; settings: Homo sapiens, A 172, 72 h, read-out: Zah. (inhibition of proliferation)
Protocol: (§6) Cells were thawed from ampoules stored in liquid nitrogen and cultured in petri dishes in the appropriate culture medium according to Table 16, in a humidified 5% CO2 atmosphere at 37° C. Cells were passaged twice weekly using EDTA-Trypsin solution, pH 8, as a separating agent. Counted cells with a viability of at least 90% as assessed with Trypan-Blue solution were used for anti-proliferation assays.
(§7) Twenty-four hours before the addition of the test compounds/combinations, cells were seeded into 384-well plates at 50 μL/well and a density of 10^3 cells/well, in the appropriate culture medium. […] Solutions of the compounds were diluted in the test medium—RPMI-1640 and Opti-MEM in a 1:1 ratio, and the medium was supplemented with 2 mM glutamine and 5% fetal bovine serum FBS.
as §3, with “After” for “Solutions of the compounds were diluted in the test medium-RPMI-1640 and Opti-MEM in a 1:1 ratio, and the medium was supplemented with 2 mM glutamine and 5% fetal bovine serum FBS. After”
as §4, §5

LUDLU-1 [2] = test: SRB anti-proliferative assay, LUDLU-1, molecular combination and nanoparticles, with combination index (Example III); format: cell-based; settings: Homo sapiens, LUDLU-1, read-out: Zah. (inhibition of cell proliferation)
Protocol: as §6, §7
as §3, with “After” for “Solutions of the compounds were diluted in the test medium-RPMI-1640 and Opti-MEM in a 1:1 ratio, and the medium was supplemented with 2 mM glutamine and 5% fetal bovine serum FBS. After”
as §4, §5

SKMES-1 = test: SRB anti-proliferative assay, SKMES-1, molecular combination and nanoparticles, with combination index (Example III); format: cell-based; settings: Homo sapiens, SK-MES-1, read-out: Inhibition of cell proliferation (Zah.)
Protocol: as §6, §7
as §3, with “After” for “Solutions of the compounds were diluted in the test medium-RPMI-1640 and Opti-MEM in a 1:1 ratio, and the medium was supplemented with 2 mM glutamine and 5% fetal bovine serum FBS. After”
as §4, §5

8 cell lines = test: SRB anti-proliferative assay, summary over the panel of 8 cell lines (Example III); format: cell-based, human; settings: CI analysis not possible
Protocol: as §6, §7
Unbound dye was removed by washing the plates (4×) in 1% (v/v) acetic acid, and protein-bound dye was extracted with 10 mM unbuffered Tris base and the optical density (A=540 nm) was determined in a BioTek Synergy H4 Hybrid computer microplate reader (BioTek Instruments USA). […] The raw absorbance results were analysed in Microsoft Excel software using the formula:
[formula] • Where: • % Zahlnh-inhibition of proliferation • Am—absorbance of wells without cells (medium) • Ak—absorbance of control wells (cells treated with pure culture medium) • Ap—absorbance of wells treated with compounds […]

## C=CCNC1=C2C[C@@H](C)C[C@H](OC)[C@H](O)[C@@H](C)/C=C(\C)[C@H](OC(N)=O)[C@@H](OC)/C=C\C=C(/C)C(=O)NC(=CC1=O)C2=O [17AAG, 17-AAG (tanespimycin)]
LUDLU-1 [1]
  inhibition at 0.0031 µM: 6.1%
  inhibition at 0.01 µM: 20.4%
  inhibition at 0.0314 µM: 47.8%
  inhibition at 0.1 µM: 66.9%
  inhibition at 0.3139 µM: 74.1%
  inhibition at 1 µM: 78.6%
  inhibition at 3.1546 µM: 83.3%
  inhibition at 10 µM: 86.3%
SW1990
  inhibition at 0.0031 µM: -0.2%
  inhibition at 0.01 µM: 5.7%
  inhibition at 0.0314 µM: 40.7%
  inhibition at 0.1 µM: 81.7%
  inhibition at 0.3155 µM: 90.6%
  inhibition at 1 µM: 92.9%
  inhibition at 3.1546 µM: 93.5%
  inhibition at 10 µM: 92.6%
BxPC3
  inhibition at 0.0031 µM: 1.7%
  inhibition at 0.01 µM: 2.7%
  inhibition at 0.0314 µM: 24.4%
  inhibition at 0.1 µM: 54.7%
  inhibition at 0.3155 µM: 75.9%
  inhibition at 1 µM: 89.4%
  inhibition at 3.1546 µM: 95.3%
  inhibition at 10 µM: 95.2%
NCI-H1299
  inhibition at 0.0031 µM: 5.1%
  inhibition at 0.01 µM: 10.5%
  inhibition at 0.0314 µM: 43.4%
  inhibition at 0.1 µM: 80.8%
  inhibition at 0.3155 µM: 93.4%
  inhibition at 1 µM: 96.9%
  inhibition at 3.1546 µM: 96.8%
  inhibition at 10 µM: 95.3%
A172
  inhibition at 0.0003163 µM: 6%
  inhibition at 0.001 µM: 15.7%
  inhibition at 0.0032 µM: 4.7%
  inhibition at 0.01 µM: 7.8%
  inhibition at 0.0316 µM: 20.1%
  inhibition at 0.1 µM: 37.4%
  inhibition at 0.3163 µM: 64.6%
  inhibition at 1 µM: 81.1%
LUDLU-1 [2]
  inhibition at 0.0003163 µM: 3.9%
  inhibition at 0.001 µM: 29.3%
  inhibition at 0.0032 µM: 61.9%
  inhibition at 0.01 µM: 75.1%
  inhibition at 0.0316 µM: 60.2%
  inhibition at 0.1 µM: 65.7%
  inhibition at 0.3163 µM: 76.9%
  inhibition at 1 µM: 80.2%
SKMES-1
  inhibition at 0.0003163 µM: 2.2%
  inhibition at 0.001 µM: 46.7%
  inhibition at 0.0032 µM: 86.7%
  inhibition at 0.01 µM: 90.6%
  inhibition at 0.0316 µM: 85.1%
  inhibition at 0.1 µM: 87.9%
  inhibition at 0.3163 µM: 89.3%
  inhibition at 1 µM: 89.1%
8 cell lines
  17-AAG activity: low

Source: US20260325487A1 (BS BIOTECHNA SPOLKA AKCYJNA, priority 2023, published 2026)
